From US20250003877A1, “Silyl Bridged Dyes” (priority 2021, published 2025)
Read-outs that look alike come from different tables or passages of the source.

Details: for ϕ (quantum yield): pH 7.4; for brighter than dimethylsilyl counterpart: vs 001 (for 002, 009) or vs 016 (for 017)
[1] = spirolactone dyes, table title says PBS, text (b560-b564) says maximal ε when ring-opened in EtOH/0.1% TFA

Structure (SMILES)	Em (nm) (PBS)	Ex (nm) (PBS)	ϕ (quantum yield) (PBS)	ε (M^−1 cm^−1) [1]	Brightness (ϕ × ε) (PBS)	ε (M^−1 cm^−1) (PBS)	brighter than dimethylsilyl counterpart (PBS)	extinction coefficient (maximum) in EtOH/0.1% TFA (EtOH/0.1% TFA)	Em (nm) (SDS)	Ex (nm) (SDS)	extinction coefficient in anhydrous EtOH/0.1% TFA (anhydrous EtOH/0.1% TFA)
C[Si@]1(CCCCl)c2cc(N3CCC3)ccc2[C@]2(OC(=O)c3ccccc32)c2ccc(N3CCC3)cc21 [Compound 036, (5r,10r)-3,7-Di(azetidin-1-yl)-5-(3-chloropropyl)-5-methyl-3′H,5H-spiro[dibenzo[b,e]siline-10,1′-isobenzofuran]-3′-one]	666 nm	648 nm	0.53	213,200 M^−1 cm^−1							
CN(C)c1ccc2c(c1)[Si@](C)(CCCI)c1cc(N(C)C)ccc1[C@]21OC(=O)c2ccccc21 [Compound 047, (5s,10s)-3,7-Bis(dimethylamino)-5-(3-iodopropyl)-5-methyl-3′H,5H-spiro[dibenzo[b,e]siline-10,1′-isobenzofuran]-3′-one]	665 nm	645 nm	0.43	115,000 M^−1 cm^−1							
C[Si@]1(CCCCl)c2cc(N3CCC3)ccc2[C@@]2(OC(=O)c3ccccc32)c2ccc(N3CCC3)cc21 [Compound 035, (5s,10s)-3,7-Di(azetidin-1-yl)-5-(3-chloropropyl)-5-methyl-3′H,5H-spiro[dibenzo[b,e]siline-10,1′-isobenzofuran]-3′-one]	666 nm	648 nm		183,000 M^−1 cm^−1							
C=C[Si]1(C)C2=CC(=[N+](C)C)C=CC2=C(c2ccccc2C)c2ccc(N(C)C)cc21 (centres unmarked) [Compound 003, N-(7-(Dimethylamino)-5-methyl-10-(o-tolyl)-5-vinyldibenzo[b,e]silin-3(5H)-ylidene)-N-methylmethanaminium]	668 nm	651 nm	0.35		48,924	141,400 M^−1 cm^−1					
CC[Si]1(CC)C2=CC(=[N+](C)C)C=CC2=C(c2ccccc2C)c2ccc(N(C)C)cc21 [Compound 002, N-(7-(Dimethylamino)-5,5-diethyl-10-(o-tolyl)dibenzo[b,e]silin-3(5H)-ylidene)-N-methylmethanaminium]	664 nm	648 nm	0.36		58,540	164,900 M^−1 cm^−1	30%				
COc1cccc(OC)c1C1=C2C=CC(=[N+]3CCC3)C=C2[Si](C)(CCCCl)c2cc(N3CCC3)ccc21 (centres unmarked) [Compound 029, 1-(7-(Azetidin-1-yl)-5-(3-chloropropyl)-10-(2,6-dimethoxyphenyl)-5-methyldibenzo[b,e]silin-3(5H)-ylidene)azetidin-1-ium]	670 nm	653 nm	0.48		86,400	180,000 M^−1 cm^−1					
Cc1ccccc1C1=C2C=CC(=[N+](C)C)C=C2[Si](C)(CCCCl)c2cc(N(C)C)ccc21 (centres unmarked) [Compound 009, N-(5-(3-Chloropropyl)-7-(dimethylamino)-5-methyl-10-(o-tolyl)dibenzo[b,e]silin-3(5H)-ylidene)-N-methylmethanaminium]	665 nm	650 nm	0.36		64,113	180,600 M^−1 cm^−1	50%				
O=C1OC2(c3ccccc31)c1ccc(N3CCC3)cc1[Si](c1ccccc1)(c1ccccc1)c1cc(N3CCC3)ccc12 [Compound 033, 3,7-Di(azetidin-1-yl)-5,5-diphenyl-3′H,5H-spiro[dibenzo[b,e]siline-10,1′-isobenzofuran]-3′-one]				80,000 M^−1 cm^−1				80,000 M−1 cm−1	681 nm	664 nm	~124 000 M−1 cm-1
